The text below walks through data of patent publication US20200405699A1, “TREATING SICKLE CELL DISEASE WITH A PYRUVATE KINASE R ACTIVATING COMPOUND” (FORMA Therapeutics, Inc., priority 2018, published 2020).

pEC50: −log10 of the molar value. Like-named read-outs stand apart in the source and are kept apart here.

For one data set, the system named is ATP blood levels. The data set can be described thus: SAD/MAD study in healthy volunteers, blood ATP levels (LC-MS/MS). Type of data set: in vivo, human. As to conditions: MAD cohorts, 60 hours after the last dose. The source says: This is a first-in-human (FIH), Phase 1 study of Compound 1 that will characterize the safety, PK, and PD of Compound 1 after a single dose and after repeated dosing first in healthy adult volunteers and then in adolescents or adults with sickle cell disease. Initially, a dose range of Compound 1 in single ascending dose (SAD) escalation cohorts will be explored in healthy subjects. Enrollment of healthy subjects into 2-week multiple ascending dose (MAD) escalation cohorts will be initiated once the safety and PK from at least two SAD cohorts is available to inform the doses for the 2-week MAD portion of the study. The MAD cohorts will then run in parallel to the single dose cohorts. […]
Four healthy SAD cohorts were evaluated at doses of 200, 400, 700, and 1000 mg, and four healthy MAD cohorts received 200 to 600 mg total daily doses for 14 days at QD or BID dosing (100 mg BID, 200 mg BID, 300 mg BID, and 400 mg QD). […]
In the MAD cohorts, the subjects' blood ATP levels were measured on day 14 by a qualified LC-MS/MS method for the quantitation of ATP in blood. […] Table 14 reports the median percentage change in blood ATP levels, relative to baseline, measured over time after the first dose on day 14 in healthy volunteers who received daily doses of Compound 1 (100 mg BID, or 200 mg BID) or placebo for 14 days. […]

The target of a further data set is PKR-R510Q (Homo sapiens, UniProt P30613, R510Q). The data set can be described thus: Luminescence Assay (Kinase Glo Plus), PKR R510Q. It is filed as biochemical. As to conditions: read-out: AC50 (PKRR510Q). The method, then:
For each tested compound, the ability to activate PKR was determined using the following Luminescence Assay. The effect of phosphorylation of adenosine-5′-diphosphate (ADP) by PKR is determined by the Kinase Glo Plus Assay (Promega) in the presence or absence of FBP (D-fructose-1,6-diphosphate; BOC Sciences, CAS: 81028-91-3) as follows. Unless otherwise indicated, all reagents are purchased from Sigma-Aldrich. All reagents are prepared in buffer containing 50 mM Tris-HCl, 100 mM KCl, 5 mM MgCl2, and 0.01% Triton X100, 0.03% BSA, and 1 mM DTT. Enzyme and PEP (phosphoenolpyruvate) are added at 2× to all wells of an assay-ready plate containing serial dilutions of test compounds or DMSO vehicle. Final enzyme concentrations for PKR(wt), PKR(R510Q), and PKR(G332S) are 0.8 nM, 0.8 nM, and 10 nM respectively. Final PEP concentration is 100 μM. The Enzyme/PEP mixture is incubated with compounds for 30 minutes at RT before the assay is initiated with the addition of 2×ADP and KinaseGloPlus. Final concentration of ADP is 100 μM. […] For assays containing FBP, that reagent is added at 30 μM upon reaction initiation. Reactions are allowed to progress for 45 minutes at RT until luminescence is recorded by the BMG PHERAstar FS Multilabel Reader. The compound is tested in triplicate at concentrations ranging from 42.5 μM to 2.2 nM in 0.83% DMSO. AC50 measurements were obtained by the standard four parameter fit algorithm of ActivityBase XE Runner (max, min, slope and AC50). The AC50 value for a compound is the concentration (μM) at which the activity along the four parameter logistic curve fit is halfway between minimum and maximum activity.
As set forth in Tables 2 and 3 below and in FIG. 1, AC50 values are defined as follows: ≤0.1 μM (+++); >0.1 μM and ≤1.0 μM (++); >1.0 μM and ≤40 μM (+); >40 μM (0).

Another data set concerns the target wt-PKR (Homo sapiens, UniProt P30613). The data set can be described thus: Enzyme assay of Example 3 (kinetic parameters, activation), wt-PKR. Type of data set: biochemical. As for the experimental part: Tests were conducted in the presence and absence of fructose-1,6-bisphosphate (FBP), a known allosteric activator of PKR.
A short description of data set [1]: SAD/MAD/food effect study in healthy volunteers, pharmacokinetics. Type of data set: in vivo, human. From the text:
This is a first-in-human (FIH), Phase 1 study of Compound 1 that will characterize the safety, PK, and PD of Compound 1 after a single dose and after repeated dosing first in healthy adult volunteers and then in adolescents or adults with sickle cell disease. Initially, a dose range of Compound 1 in single ascending dose (SAD) escalation cohorts will be explored in healthy subjects. Enrollment of healthy subjects into 2-week multiple ascending dose (MAD) escalation cohorts will be initiated once the safety and PK from at least two SAD cohorts is available to inform the doses for the 2-week MAD portion of the study. The MAD cohorts will then run in parallel to the single dose cohorts. A single dose cohort is planned to understand food effects (FE) on the PK of Compound 1. […] Multiple dose studies in SCD subjects will then be initiated upon completion of MAD studies in healthy volunteers. Compound 1 will be administered in 25 mg and 100 mg tablets delivered orally.
Four healthy SAD cohorts were evaluated at doses of 200, 400, 700, and 1000 mg, and four healthy MAD cohorts received 200 to 600 mg total daily doses for 14 days at QD or BID dosing (100 mg BID, 200 mg BID, 300 mg BID, and 400 mg QD). In the food effect (FE) cohort, 10 healthy subjects received 200 mg of Compound 1 QD with and without food.

Data set [2] can be described thus: PK/PD study in wild type mice, exposure. Type of data set: in vivo, Balb/c mice. As to conditions: oral; for AUC(0-t): Balb/c, mouse, in vivo, read-out: AUC0-24. As for the experimental part:
Two pharmacokinetic (PK)/phamacodynamic (PD) studies were conducted in Balb/c mice that were administered Compound 1 once daily by oral gavage (formulated in 10% Cremophor EL/10% PG/80% DI water) for 7 days (QD×7) at doses of 0 (vehicle), 3.75, 7.5, 15, 30, 60 mg/kg (Study 1); 0 (vehicle), 7.5, 15, 30, 60, 120, or 240 mg/kg (Study 2). On the 7th day, whole blood was collected 24 hours after dosing and snap frozen. Samples were later thawed and analyzed by LC/MS for 2,3-DPG and ATP levels.

The target in another data set is T1, PKR in mouse RBCs (Mus musculus, UniProt P53657).
T1 construct: Mouse RBCs were isolated fresh from whole blood using a Ficoll gradient; endogenous in cells; host or cells: mouse red blood cells isolated fresh from whole blood
T1 sequence (P53657 whole entry): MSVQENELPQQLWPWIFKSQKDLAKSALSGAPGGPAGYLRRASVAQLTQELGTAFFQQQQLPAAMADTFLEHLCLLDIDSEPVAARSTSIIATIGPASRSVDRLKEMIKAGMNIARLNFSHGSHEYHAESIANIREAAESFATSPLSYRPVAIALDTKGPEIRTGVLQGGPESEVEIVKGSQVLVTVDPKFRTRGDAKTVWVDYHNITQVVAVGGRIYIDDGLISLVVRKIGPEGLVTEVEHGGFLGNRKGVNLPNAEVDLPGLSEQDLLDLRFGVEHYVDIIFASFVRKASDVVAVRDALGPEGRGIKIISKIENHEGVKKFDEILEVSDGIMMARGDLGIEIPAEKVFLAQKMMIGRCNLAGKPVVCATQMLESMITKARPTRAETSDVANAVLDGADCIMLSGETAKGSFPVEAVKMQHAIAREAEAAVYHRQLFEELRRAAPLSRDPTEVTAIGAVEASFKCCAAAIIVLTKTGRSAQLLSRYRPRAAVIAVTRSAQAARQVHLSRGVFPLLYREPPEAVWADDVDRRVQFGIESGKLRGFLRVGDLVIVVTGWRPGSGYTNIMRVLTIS
The data set can be described thus: PKR activation in mouse red blood cells. It is filed as cell-based. From the text: Mouse RBCs were isolated fresh from whole blood using a Ficoll gradient and assayed with methods similar to those used in the human RBCs assays.

Chain of wt-PKR (P30613 whole entry): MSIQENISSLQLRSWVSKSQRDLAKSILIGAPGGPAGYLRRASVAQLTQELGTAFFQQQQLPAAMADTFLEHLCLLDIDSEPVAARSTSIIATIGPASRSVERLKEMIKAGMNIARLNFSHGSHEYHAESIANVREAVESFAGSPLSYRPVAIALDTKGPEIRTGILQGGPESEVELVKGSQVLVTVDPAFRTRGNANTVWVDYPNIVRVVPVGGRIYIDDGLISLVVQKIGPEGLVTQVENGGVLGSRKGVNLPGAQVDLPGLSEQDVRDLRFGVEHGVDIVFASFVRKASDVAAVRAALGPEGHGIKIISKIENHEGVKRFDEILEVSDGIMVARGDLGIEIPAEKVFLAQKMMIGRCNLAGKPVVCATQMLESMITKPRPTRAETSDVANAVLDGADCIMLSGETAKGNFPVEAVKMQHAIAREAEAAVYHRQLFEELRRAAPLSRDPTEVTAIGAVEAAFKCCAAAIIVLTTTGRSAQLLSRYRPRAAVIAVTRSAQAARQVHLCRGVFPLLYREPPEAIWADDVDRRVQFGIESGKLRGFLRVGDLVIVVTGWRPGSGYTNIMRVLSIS
Chain of PKR-R510Q (P30613 whole entry R510Q): as the sequence (P30613 whole entry) above, with R510Q counted along it

As to `O=C([C@H](CO)c1ccccc1)N1CC2=C(C1)CN(S(=O)(=O)c1cnc3c(c1)OCCO3)C2` (single isomer, unassigned) [Compound 1], the “ATP levels relative to baseline after last dose” value in the data set on ATP blood levels is reported as “remained elevated”. For the same molecule, the results for the AC50 at PKR-R510Q and at wt-PKR (PEP at or below Km) were not above 100 nM and less than 50 nM, respectively. Besides, the “Vmax (normalized)” value on wt-PKR (30 μM FBP, 2 μM Compound 1, normalized within row) came to 1.16; at wt-PKR (No FBP, 2 μM Compound 1, normalized to 1.00 relative to other values in same row) it was 1.14. For the same molecule, the “Maximum-fold Activation” value at wt-PKR (PEP at or below Km, rate of ATP formation) is listed as less than 2.0. The “PK linearity, multiple doses” value in data set [1] (100-300 mg BID, 400 mg QD) is recorded as “linear PK”. The Tmax in data set [1] (human, plasma, healthy volunteers, oral, postdose, read-out: Median Tmax) was determined as 1 h. In addition, the “Dose dependence of single dose exposure” value in data set [1] (single doses ≥700 mg) is on record as “greater than dose-proportional”. The AUC(0-t) was more than 4000 ng·h/mL in data set [2] (doses ≥60 mg/kg) and more than 5200 ng·h/mL in data set [2] (doses ≥120 mg/kg). For the same molecule, in data set [2], the “Dose dependence of exposure” value is reported as “dose-proportional”. In addition, the pEC50 on PKR in mouse RBCs (individual replicates, read-out: EC50) was more than 6.90. In addition, the concentration giving a half-maximal response (EC50) on PKR in mouse RBCs (mean of replicates, read-out: EC50 (nM), Mean) was less than 125 nM.

In general, AC50 refers to the midpoint of the concentration-response curve, whichever way the signal moves. The term pEC50 denotes the negative decadic logarithm of the EC50, by convention in mol/L. In general, EC50 refers to the midpoint of the concentration-response curve.
